Experimental data from patent US20220257604A1, “COMPOSITIONS AND METHODS FOR […] INFECTIONS BY REGULATING GLUCOSYLCERAMIDES” (priority 2019, published 2022).

Key:
A549 cells [1] = format: cell-based, human; conditions: 40 minutes at 37° C., compared with GBA KO cells
A549 cells [2] = format: cell-based, human; conditions: WT A549 cells pretreated with nocodazole; EGF-555 100 ng/mL; 40 minutes at 37° C.; compared with GBA KO cells

COC(=O)Nc1nc2ccc(C(=O)c3cccs3)cc2[nH]1 [nocodazole]
colocalization of influenza with Lamp1 (Manders coefficient) (A549 cells [1]): not as strongly as in WT cells treated with nocodazole | colocalization of EGF with Lamp1 (Manders coefficient) (A549 cells [2]): not as severe as seen in WT cells treated with nocodazole
